Measured values as given in publication PMC9865645, “The Impact of N^ε-Acryloyllysine Piperazides on the Conformational Dynamics of Transglutaminase 2” (International Journal of Molecular Sciences, 2023).
Where two headings read alike, the source gives them in different places.

Experiments:
[1] = target: T1, hTGase 2 (Homo sapiens, UniProt P21980); assay: switchSENSE dynamic mode: upward motion (relative inverse slope, friction) of hTGase 2-dsDNA lever; settings: 10 µM inhibitor with 1 mM Ca^2+, 0.1% DMSO, then pure TE40; non-directed labeling
T1 construct: purchased Zedira (Darmstadt, Germany) T022, lot 0716a
T1 sequence (P21980 1-687): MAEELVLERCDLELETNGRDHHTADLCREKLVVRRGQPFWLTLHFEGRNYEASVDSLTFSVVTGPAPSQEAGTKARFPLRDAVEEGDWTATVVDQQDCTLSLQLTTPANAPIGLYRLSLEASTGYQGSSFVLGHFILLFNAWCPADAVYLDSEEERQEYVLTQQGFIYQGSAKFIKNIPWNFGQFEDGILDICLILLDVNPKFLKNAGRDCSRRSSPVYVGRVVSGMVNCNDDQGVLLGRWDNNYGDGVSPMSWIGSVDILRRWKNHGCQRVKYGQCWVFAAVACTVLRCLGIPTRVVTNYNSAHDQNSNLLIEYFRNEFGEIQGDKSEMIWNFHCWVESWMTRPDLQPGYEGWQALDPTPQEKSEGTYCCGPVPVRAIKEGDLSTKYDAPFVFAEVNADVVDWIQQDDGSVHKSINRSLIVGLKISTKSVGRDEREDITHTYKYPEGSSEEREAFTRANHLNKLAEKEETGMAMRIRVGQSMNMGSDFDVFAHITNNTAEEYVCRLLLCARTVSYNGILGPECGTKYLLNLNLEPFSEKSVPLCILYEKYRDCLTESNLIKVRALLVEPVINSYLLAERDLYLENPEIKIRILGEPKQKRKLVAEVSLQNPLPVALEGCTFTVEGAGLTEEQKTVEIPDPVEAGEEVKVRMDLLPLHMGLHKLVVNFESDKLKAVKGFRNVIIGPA
Protocol: Prior to the measurement of the switching kinetics of the differently conjugated hTGase 2, a complementary ssDNA without the enzyme (500 nM) was hybridized to the single-stranded capture strands on the chip electrodes to obtain the reference kinetics of the dsDNA lever. In addition, to determine the impact of CaCl2 and DMSO on the movement of the bare dsDNA lever, and thus on reference kinetics, its switching behavior was investigated in TE40, TE40 + 1 mM CaCl2, TE40 + 1 mM CaCl2 + 1% DMSO or TE40 + 1 mM CaCl2 + 0.1% DMSO.
Then, the dehybridization of the reference lever occurred during a regeneration step followed by the hybridization with an ssDNA-hTGase 2 conjugate (500 nM). Thereafter, the switching kinetics was recorded. […]
The impact on the hydrodynamic drag of the hTGase 2-functionalized lever was investigated under identical conditions for the three irreversible inhibitors 1–3: At first, the switching kinetics of the dsDNA lever and the hTGase 2-dsDNA conjugates were recorded. Secondly, the switching kinetics of the hTGase 2-dsDNA conjugates during and after Ca^2+ exposure were recorded using TE40 + 1 mM CaCl2 or TE40, respectively. […] In this process, the hydrodynamic drag was analyzed during the exposure to 10 µM inhibitor (for 6 min) dissolved in TE40 + 1 mM CaCl2 + 0.1% DMSO and to TE40 afterward. […]

[2] = target: T2, commercial His6-hTGase 2 (Homo sapiens, UniProt P21980); assay: fluorescence anisotropy (FA)-based transamidase activity assay, commercial His6-hTGase 2; assay type: biochemical; settings: 5 min pre-incubation of enzyme and inhibitor; mean (SEM) of three experiments
T2 construct: purchased Zedira (Darmstadt, Germany) T022, lot 0716a
T2 sequence (P21980 1-687): T1 sequence (P21980 1-687)
Protocol: (§1) For the analysis of inhibitor 1 on self-produced hTGase 2, 2 µg/mL of the enzyme was used to guarantee comparability with the value reported by Wodtke et al., whereas all other experiments were performed with 5 µg/mL of either commercial or self-produced hTGase 2 (corresponding to 64.1 and 61.6 nM, respectively, when assuming 100% active protein). Parallel and perpendicular fluorescence intensities were measured over 1190 s in 35 s intervals (1) or over 1776 s in 48 s intervals (2, 3) and used to calculate the FA. Data of FA for the first 875 s (1) or 384 s (2, 3) were analyzed by linear regression, with slopes corresponding to enzymatic rates. Rates in the presence of inhibitor were normalized by dividing them by the respective rate in the absence of inhibitor, and normalized rates were analyzed according to Equation (S29) in Supplementary Materials to calculate values of IC50. Data analysis was performed with Microsoft Excel (Microsoft Office Professional Plus 2016, Microsoft® Corporation, USA) and GraphPad Prism version 5.03 or version 6.07 for Windows (GraphPad Software, La Jolla, CA, USA).

[3] = target: T3, in-house produced N-terminally Twin-Strep-tagged hTGase 2 (Homo sapiens, UniProt P21980); assay: fluorescence anisotropy (FA)-based transamidase activity assay, in-house Twin-Strep-tagged hTGase 2; assay type: biochemical; settings: 5 min pre-incubation of enzyme and inhibitor; mean (SEM) of three experiments
T3 construct: thrombin cleavage site (N); made in house; host or cells: E. coli BL21(DE3)
T3 sequence (P21980 1-687): T1 sequence (P21980 1-687)
Excerpt: The gene of hTGase 2 (Uniprot ID: P21980) with an N-terminal thrombin cleavage site was cloned into the pPSG-IBA105 vector containing the sequence for an N-terminal Twin-Strep-tag (IBA Lifesciences GmbH, Göttingen, Germany) to obtain the final plasmid pPSG-IBA105/TCS-hTGase 2. The plasmid construct was verified by DNA sequencing (Eurofins Genomics Germany GmbH) and then transformed into E. coli BL21(DE3) by the heat–shock method. hTGase 2-expressing E. coli cells were lysed by lysozyme treatment, and hTGase 2 was purified by affinity chromatography on an ÄKTA purifier UPC 10 FPLC equipped with a Strep-Tactin XT cartridge (GE Healthcare Europe GmbH, Freiburg, Germany). Identity and purity of self-produced hTGase 2 were verified by SDS-PAGE and Western Blot analysis, respectively. Protein concentration was determined according to Bradford. More detailed descriptions of the generation and characterization of the final plasmid construct pPSG-IBA105/TCS-hTGase 2 and the expression, purification, and characterization of the self-produced hTGase 2 protein will be published elsewhere (manuscript in preparation).
as §1

[4] = target: T4, His6-hTGase 2 (Homo sapiens, UniProt P21980); assay: fluorimetric activity assay (substrate Z-Glu(HMC)-Gly-OH) for kinact/KI; assay type: biochemical; settings: mean (SEM) of two to four experiments
T4 construct: purchased Zedira (Darmstadt, Germany) T022, lot 0716a
T4 sequence (P21980 1-687): T1 sequence (P21980 1-687)

[5] = target: T2, commercial His6-hTGase 2; design: method as in PMID 29664627; settings: 5 min pre-incubation of enzyme and inhibitor; mean (SEM); previously reported; cited from earlier work
[6] = target: T4, His6-hTGase 2; design: method as in PMID 29664627; settings: mean (SEM); previously reported; cited from earlier work
[7] = design: method as in doi:10.1039/DT9920002039, PMID 1868851; settings: cited from earlier work

IC50 [2] [nM] | kinact/KI [4] [M⁻¹ s⁻¹] | SMILES | friction (relative inverse slope) after removal of Ca^2+ and inhibitor ("after Ca^2+ + inhibitor") [1] | IC50 [3] [nM] | IC50 [5] [nM] | kinact/KI [6] | pK value of H2GTP^3− (γP-OH) [7] | pK value of H3GTP^2− (N7^+H) [7] | pK value of HGTP^4− (N1H) [7]
280 | 4500 | C=CC(=O)NCCCCC(NC(=O)Cc1ccccc1I)C(=O)N1CCN(c2ccc(C(F)(F)F)nc2)CC1 [Compound 3, N^α-(2-Iodophenylacetyl)-N^ε-acryloyl-L-lysin-4-(2-trifluoromethyl-5-yl)piperazide] | significantly higher compared to “w/o” and “after Ca^2+” | 209 |  |  |  |  | 
 |  | C=CC(=O)NCCCCC(NC(=O)Cc1ccccc1)C(=O)N1CCN(c2cccc(F)n2)CC1 (stereo not shown) [Compound 1] |  | 135 | 108 | 3850 (240) ^e M^−1s^−1 |  |  | 
 |  | Nc1nc2c(ncn2[C@@H]2O[C@H](COP(=O)(O)OP(=O)(O)OP(=O)(O)O)[C@@H](O)[C@H]2O)c(=O)[nH]1 [GTP] |  |  |  |  | 6.5 | 2.9 | 9.6
